Test results reported in ChEMBL document CHEMBL2390896, “Synthesis, enzymatic stability and in vitro cytostatic effect of Daunorubicin-GnRH-III derivative dimers” (Bioorg Med Chem Lett, 2013).

How the values were obtained:
[1] = Proteolytic stability in 0.1 % formic acid at pH 1.8 in presence of pepsin after 24 hrs by mass spectrometry; type: ADME; conditions: isolated protein, pH 1.8, 24 h
[2] = Chemical stability of the compound in aqueous solution after 24 hrs by LC-MS analysis; type: physicochemical; conditions: buffer
[3] = Prodrug conversion in rat liver lysosomal homogenate assessed as {[H-Lys(Dau=Aoa-Cys)-OH] [H-Lys(Dau=Aoa-Cys)P-OH]} formation at 0.1 ug/uL after 24 hrs by LC-MS analysis; type: ADME, tissue-based
[4] = Proteolytic stability in NH4HCO3 buffer at pH 8.0 in presence of trypsin at 0.1 ug/uL after 24 hrs by mass spectrometry; type: ADME; conditions: isolated protein, pH 8, 24 h
[5] = Proteolytic stability in Tris-HCl/CaCl2 buffer at pH 7.8 in presence of alpha-chymotrypsin assessed as compound degradation at 0.1 ug/uL after 6 hrs by mass spectrometry; type: ADME; conditions: pH 7.8, 6 h
[6] = Prodrug conversion in rat liver lysosomal homogenate assessed as free daunorubicin at 0.1 ug/uL after 24 hrs by LC-MS analysis; type: ADME, tissue-based
[7] = Proteolytic stability in Tris-HCl/CaCl2 buffer at pH 7.8 in presence of alpha-chymotrypsin assessed as cleavage of compound at -3Trp-4Xxx- in second arm of dimer at 0.1 ug/uL after 24 hrs by mass spectrometry; type: ADME; conditions: pH 7.8, 24 h
[8] = Proteolytic stability in Tris-HCl/CaCl2 buffer at pH 7.8 in presence of alpha-chymotrypsin assessed as cleavage of compound at -3Trp-4Xxx- in one arm of dimer at 0.1 ug/uL measured after 1 hr by mass spectrometry; type: ADME; conditions: pH 7.8, 1 h
MCF7 = assay: Cytostatic activity against human MCF7 cells after 72 hrs by MTT assay; type: functional, cell-based; conditions: MCF7, 72 h
Serum = assay: Metabolic stability in human serum at 10 uM after 24 hrs by LC-MS analysis; type: ADME, cell-free
[9] = Proteolytic stability in Tris-HCl/CaCl2 buffer at pH 7.8 in presence of alpha-chymotrypsin assessed as intact parent compound at 0.1 ug/uL measured after 24 hrs by mass spectrometry; type: ADME; conditions: pH 7.8, 24 h
[10] = Proteolytic stability in Tris-HCl/CaCl2 buffer at pH 7.8 in presence of alpha-chymotrypsin assessed as cleavage of compound at -3Trp-4Xxx- in second arm of dimer at 0.1 ug/uL after 4 hrs by mass spectrometry; type: ADME; conditions: pH 7.8, 4 h
[11] = Prodrug conversion in rat liver lysosomal homogenate assessed as H-Lys(Dau=Aoa-Cys)-OH formation at 0.1 ug/uL after 24 hrs by LC-MS analysis; type: ADME, tissue-based
[12] = Drug metabolism in rat liver lysosomal homogenate assessed as [H-Lys(Dau=Aoa-Cys)-OH]2 formation at 0.1 ug/uL after 24 hrs by LC-MS analysis; type: ADME, tissue-based; conditions: tissue homogenate

Structure (SMILES): COc1cccc2c1C(=O)c1c(O)c3c(c(O)c1C2=O)C[C@@](O)(/C(C)=N/OCC(=O)N[C@@H](CSSC[C@H](NC(=O)CO/N=C(\C)[C@]1(O)Cc2c(O)c4c(c(O)c2[C@@H](O[C@H]2C[C@H](N)[C@H](O)[C@H](C)O2)C1)C(=O)c1c(OC)cccc1C4=O)C(=O)NCCCC[C@H](NC(=O)[C@H](Cc1c[nH]c2ccccc12)NC(=O)[C@H](CC(=O)O)NC(=O)[C@H](Cc1cnc[nH]1)NC(=O)[C@H](CO)NC(=O)[C@H](Cc1c[nH]c2ccccc12)NC(=O)[C@H](Cc1cnc[nH]1)NC(=O)[C@@H]1CCC(=O)N1)C(=O)N1CCC[C@H]1C(=O)NCC(N)=O)C(=O)NCCCC[C@H](NC(=O)[C@H](Cc1c[nH]c2ccccc12)NC(=O)[C@H](CC(=O)O)NC(=O)[C@H](Cc1cnc[nH]1)NC(=O)[C@H](CO)NC(=O)[C@H](Cc1c[nH]c2ccccc12)NC(=O)[C@H](Cc1cnc[nH]1)NC(=O)[C@@H]1CCC(=O)N1)C(=O)N1CCC[C@H]1C(=O)NCC(N)=O)C[C@@H]3O[C@H]1C[C@H](N)[C@H](O)[C@H](C)O1
- Stability [1]: Stable
- Stability [2]: Stable
- Drug metabolism [3]: Active
- Stability [4]: Stable
- Stability [5]: Unstable
- Drug metabolism [6]: Not Active
- Stability [7]: Stable
- Stability [8]: Unstable
- IC50 (MCF7): 4.1 µM
- Stability (Serum): Stable
- Stability [9]: Stable
- Stability [10]: Stable

Structure (SMILES): COc1cccc2c1C(=O)c1c(O)c3c(c(O)c1C2=O)C[C@@](O)(/C(C)=N/OCC(=O)NCCCC[C@H](NC(=O)[C@H](Cc1c[nH]c2ccccc12)NC(=O)[C@H](CC(=O)O)NC(=O)[C@H](Cc1cnc[nH]1)NC(=O)[C@H](CO)N(C)C(=O)[C@H](Cc1c[nH]c2ccccc12)NC(=O)[C@H](Cc1cnc[nH]1)NC(=O)[C@@H]1CCC(=O)N1)C(=O)N1CCC[C@H]1C(=O)NCC(N)=O)C[C@@H]3O[C@H]1C[C@H](N)[C@H](O)[C@H](C)O1
- Drug metabolism [11]: Active
- IC50 (MCF7): 10.6 µM

Structure (SMILES): COc1cccc2c1C(=O)c1c(O)c3c(c(O)c1C2=O)C[C@@](O)(/C(C)=N/OCC(=O)N[C@@H](CSSC[C@H](NC(=O)CO/N=C(\C)[C@]1(O)Cc2c(O)c4c(c(O)c2[C@@H](O[C@H]2C[C@H](N)[C@H](O)[C@H](C)O2)C1)C(=O)c1c(OC)cccc1C4=O)C(=O)NCCCC[C@H](NC(=O)[C@H](Cc1c[nH]c2ccccc12)NC(=O)[C@H](CC(=O)O)NC(=O)[C@H](Cc1cnc[nH]1)NC(=O)[C@H](CO)N(C)C(=O)[C@H](Cc1c[nH]c2ccccc12)NC(=O)[C@H](Cc1cnc[nH]1)NC(=O)[C@@H]1CCC(=O)N1)C(=O)N1CCC[C@H]1C(=O)NCC(N)=O)C(=O)NCCCC[C@H](NC(=O)[C@H](Cc1c[nH]c2ccccc12)NC(=O)[C@H](CC(=O)O)NC(=O)[C@H](Cc1cnc[nH]1)NC(=O)[C@H](CO)N(C)C(=O)[C@H](Cc1c[nH]c2ccccc12)NC(=O)[C@H](Cc1cnc[nH]1)NC(=O)[C@@H]1CCC(=O)N1)C(=O)N1CCC[C@H]1C(=O)NCC(N)=O)C[C@@H]3O[C@H]1C[C@H](N)[C@H](O)[C@H](C)O1
- Stability [1]: Stable
- Stability [2]: Stable
- Stability [4]: Stable
- Stability [5]: Unstable
- Stability [7]: Stable
- Stability [8]: Unstable
- IC50 (MCF7): 6.2 µM
- Stability (Serum): Stable
- Stability [9]: Stable
- Stability [10]: Stable
- Drug metabolism [12]: Active
